{
  "source": "patent US12565485B2",
  "about": "“Solid forms of 1-((S)-4-((R)-7-(6-amino-4-methyl-3-(trifluoromethyl)pyridin-2-yl)-6-chloro-8-fluoro-2-(((s)-1-methylpyrrolidin-2-yl)methoxy)quinazolin-4-yl)-3-methylpiperazin-1-yl)prop-2-en-1-one” (Genentech, Inc., priority 2022, dated 2026)",
  "format_in_all_cases": "physicochemical",
  "key": {"Slow cooling": {"assay": "Slow cooling", "settings": "Compound A, 50° C. to 5° C. at 0.1° C./min", "experimental": "Slow cooling Compound A. Slow cooling experiments were conducted in four solvent systems. […] The suspension was then heated to 50° C., equilibrated for about 2 hr and filtered to a new vial using a seal membrane (PTFE, pore size of 0.45 μm). Filtrates were slowly cooled down to 5° C. at a rate of 0.1° C./min. The obtained solids were kept isothermal at 5° C. before isolation for XRPD analysis."}, "Anti-solvent addition": {"assay": "Anti-solvent addition", "settings": "Compound A", "experimental": "Anti-solvent addition. A total of 12 anti-solvent addition experiments were carried out. […] The obtained precipitate was isolated for XRPD analysis.\nAnti-solvent addition Compound A. A total of 14 anti-solvent addition experiments were carried out. […] The obtained precipitate was isolated for XRPD analysis."}, "[1]": {"assay": "Heating under N2 protection (VT-XRPD), form change", "settings": "heating to 100° C. under N2 protection, cooled down and exposed to ambient conditions; listed as adipate Type A", "experimental": "Compound B Form A was obtained from an acetone system and the sample was air dried at RT. […] (peak temperature) before the possible overlapped peak with peak temperature at 156.3° C. (FIG. 12). Based on the integrals, the stoichiometric ratio of fumaric acid:freebase was determined to be 1.03. A peak of acetone was observed and approximately 0.49 molar acetone (4.4 wt %) was detected. The HPLC purity of Compound B Form A was determined to be 93.56 area %. […] Around 0.39 molar acetone (3.5 wt %) was still detected. One endotherm at 58.7° C. and an overlapped peak with peak temperature at 157.1° C. were still observed on the sample obtained after heating. The first endotherm might be caused by re-adsorption of moisture. Since ˜3.5 wt % acetone was still detected from NMR, Compound B Form A is expected to be an acetone/H2O co-solvate. […]"}},
  "data": [
    {"smiles": "C=CC(=O)N1CCN(c2nc(OC[C@@H]3CCCN3C)nc3c(F)c(-c4nc(N)cc(C)c4C(F)(F)F)c(Cl)cc23)[C@@H](C)C1", "note": "[Compound A Form A]", "values": [
      {"measurement": "Result", "setting": "Slow cooling; ACN", "result": "Compound A Form A"},
      {"measurement": "Result", "setting": "Slow cooling; Acetone", "result": "Compound A Form A"},
      {"measurement": "Result", "setting": "Slow cooling; IPA", "result": "Compound A Form A"},
      {"measurement": "Result", "setting": "Slow cooling; MEK", "result": "Compound A Form A"},
      {"measurement": "Result", "setting": "Anti-solvent addition; solvent 2-MeTHF, anti-solvent n-Heptane", "result": "Gel"},
      {"measurement": "Result", "setting": "Anti-solvent addition; solvent DCM, anti-solvent MTBE", "result": "Compound A Form A"},
      {"measurement": "Result", "setting": "Anti-solvent addition; solvent DCM, anti-solvent Toluene", "result": "Compound A Form B"},
      {"measurement": "Result", "setting": "Anti-solvent addition; solvent DCM, anti-solvent n-Heptane", "result": "Compound A Form A"},
      {"measurement": "Result", "setting": "Anti-solvent addition; solvent DMSO, anti-solvent EtOAc", "result": "Clear"},
      {"measurement": "Result", "setting": "Anti-solvent addition; solvent EtOH, anti-solvent Anisole", "result": "Clear solution"},
      {"measurement": "Result", "setting": "Anti-solvent addition; solvent EtOH, anti-solvent MTBE", "result": "Gel"},
      {"measurement": "Result", "setting": "Anti-solvent addition; solvent EtOH, anti-solvent n-Heptane", "result": "Compound A Form A"},
      {"measurement": "Result", "setting": "Anti-solvent addition; solvent MeOH, anti-solvent MTBE", "result": "Gel"},
      {"measurement": "Result", "setting": "Anti-solvent addition; solvent MeOH, anti-solvent Toluene", "result": "Compound A Form A"},
      {"measurement": "Result", "setting": "Anti-solvent addition; solvent THF, anti-solvent EtOAc", "result": "Compound A Form A"},
      {"measurement": "Result", "setting": "Anti-solvent addition; solvent THF, anti-solvent MTBE", "result": "Compound A Form A"},
      {"measurement": "Result", "setting": "Anti-solvent addition; solvent THF, anti-solvent Toluene", "result": "Compound A Form A"},
      {"measurement": "Result", "setting": "Anti-solvent addition; solvent THF, anti-solvent n-Heptane", "result": "Compound A Form A"},
      {"measurement": "Form change after heating", "setting": "[1]", "result": "very slight differences were observed before and after heating"}
    ]}
  ]
}
